By IC50 is commonly meant the concentration at which inhibition is half-maximal.

Experimental findings from PMC8421423, “Cellular model system to dissect the isoform-selectivity of Akt inhibitors” (Nature Communications, 2021) are described below.

“And” between values parts separate entries of the source, which are not always exact repeats. Identical values can stand only once. Like-named read-outs stand apart in the source and are kept apart here.

The subject of assay [1] is Ba/F3^myr-Akt2 cells. Put plainly: CellTiter-Glo cell viability assay. In general terms: ATP-based viability assays read luminescence as a measure of living cells.
Assay [2] deals with Ba/F3^myr-Akt3 cells. Kind of assay: CellTiter-Glo cell viability assay. To be noted: for Log ratio EC50 [Akt] / EC50 [Akt], Akt3 / Akt2: cell viability assay Ba/F3 myr-Akt cells, log units.
Assay [3] relates to parental Ba/F3 cells. Kind of assay: CellTiter-Glo cell viability assay. It counts as cell-based, murine.
Assay [4] relates to Ba/F3^myr-Akt1 cells. Put plainly: CellTiter-Glo cell viability assay. To be noted: for Log ratio EC50 [Akt] / EC50 [Akt], Akt1 / Akt2: cell viability assay Ba/F3 myr-Akt cells, log units.
Assay [5] deals with Akt2 (Homo sapiens, UniProt P31751). Kind of assay: STK HTRF KinEASE activity-based assay (IC50).
Chain of Akt2 (P31751 whole entry): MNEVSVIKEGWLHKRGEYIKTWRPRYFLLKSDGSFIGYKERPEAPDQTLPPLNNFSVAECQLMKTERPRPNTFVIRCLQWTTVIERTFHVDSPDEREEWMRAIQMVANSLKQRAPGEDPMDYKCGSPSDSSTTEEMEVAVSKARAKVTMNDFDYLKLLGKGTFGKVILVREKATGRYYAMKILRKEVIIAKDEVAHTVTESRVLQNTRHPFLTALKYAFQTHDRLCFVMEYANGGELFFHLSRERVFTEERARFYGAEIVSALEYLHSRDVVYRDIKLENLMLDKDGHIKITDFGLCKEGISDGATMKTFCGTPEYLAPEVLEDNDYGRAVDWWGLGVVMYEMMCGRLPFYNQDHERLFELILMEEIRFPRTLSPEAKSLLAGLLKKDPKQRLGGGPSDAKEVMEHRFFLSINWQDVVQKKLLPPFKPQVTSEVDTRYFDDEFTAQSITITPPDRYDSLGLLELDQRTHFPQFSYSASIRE
The target of assay [6] is Akt3 (Homo sapiens, UniProt Q9Y243). Kind of assay: STK HTRF KinEASE activity-based assay (IC50). In general terms: TR-FRET usually uses a lanthanide donor and a delayed reading to cut background.
Chain of Akt3 (Q9Y243 whole entry): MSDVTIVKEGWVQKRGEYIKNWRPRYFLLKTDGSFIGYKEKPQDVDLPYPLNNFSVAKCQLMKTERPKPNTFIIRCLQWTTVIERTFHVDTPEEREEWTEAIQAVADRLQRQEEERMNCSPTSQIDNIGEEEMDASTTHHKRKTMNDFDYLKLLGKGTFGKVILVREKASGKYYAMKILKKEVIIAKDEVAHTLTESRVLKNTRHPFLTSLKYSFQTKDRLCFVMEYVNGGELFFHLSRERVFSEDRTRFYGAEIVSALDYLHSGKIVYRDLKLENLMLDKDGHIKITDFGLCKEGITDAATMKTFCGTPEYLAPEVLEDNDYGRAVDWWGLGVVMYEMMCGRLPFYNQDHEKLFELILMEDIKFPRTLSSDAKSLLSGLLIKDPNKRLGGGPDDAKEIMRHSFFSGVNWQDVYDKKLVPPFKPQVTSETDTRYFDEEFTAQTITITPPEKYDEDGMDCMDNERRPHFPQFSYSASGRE
Method: The biochemical half maximal inhibitory concentrations (IC50) were determined with the STK HTRF KinEASE assay (Cisbio) according to the manufactor’s instructions. Briefly: 5 µL Kinase solution and 2.5 µL inhibitor solution (8% DMSO in HTRF buffer) were incubated for 1 h before the reaction was started by addition of 2.5 µL starting solution containing ATP and substrate peptide. […] After reaction completion (Akt1: 60 min, Akt2: 20 min, Akt3: 15 min), 10 µL of stop solution were added. […] The quotient of both intensities were recorded at eight different inhibitor concentrations and data fit to a Hill 4-parameter equation with Quattro software suite (Quattro Research GmbH, Martinsried, Germany). Each reaction was performed in duplicates and at least three independent determinations of each IC50 were made.
For assay [7], the target named is Akt1 (Homo sapiens, UniProt P31749). Put plainly: STK HTRF KinEASE activity-based assay (IC50). The settings on record: for Log ratio IC50 [Akt] / IC50 [Akt], Akt1 / Akt2: biochemical activity based assay, log units.
Chain of Akt1 (P31749 whole entry): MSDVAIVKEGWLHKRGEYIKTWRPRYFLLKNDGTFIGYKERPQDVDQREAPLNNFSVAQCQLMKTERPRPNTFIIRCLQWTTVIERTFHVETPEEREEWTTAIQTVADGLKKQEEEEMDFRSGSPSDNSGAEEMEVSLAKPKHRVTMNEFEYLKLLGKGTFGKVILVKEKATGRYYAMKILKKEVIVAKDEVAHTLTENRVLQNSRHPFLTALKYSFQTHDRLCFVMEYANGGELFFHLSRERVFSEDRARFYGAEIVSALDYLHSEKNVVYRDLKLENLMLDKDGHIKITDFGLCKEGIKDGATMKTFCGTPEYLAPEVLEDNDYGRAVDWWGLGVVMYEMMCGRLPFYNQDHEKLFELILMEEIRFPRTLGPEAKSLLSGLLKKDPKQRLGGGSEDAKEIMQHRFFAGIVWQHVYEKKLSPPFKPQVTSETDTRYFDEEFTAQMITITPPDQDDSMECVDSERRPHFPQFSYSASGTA
Setting [8] is: Mus musculus, read-out: CTG BaF3myr-Akt2, Mean, mean of replicates.
[9] abbreviates: read-out: CTG BaF3myr-Akt2, individual determinations, single replicates.
Setting [10] is: Mus musculus, read-out: CTG BaF3myr-Akt3, Mean, mean of replicates.
The mark [11] stands for this setting: Mus musculus, read-out: CTG BaF3myr-Akt3, individual determinations, single replicates.
[12] abbreviates: read-out: CTG BaF3myr-Akt3, individual determinations, single replicates.
[13] abbreviates: Mus musculus, BaF3, parental cells, mean of replicates, read-out: CTG BaF3, Mean.
Setting [14] is: Mus musculus, BaF3, parental cells, single replicates, read-out: CTG BaF3, individual determinations.
The mark [15] stands for this setting: parental cells, single replicates, read-out: CTG BaF3, individual determinations.
Setting [16] is: Mus musculus, read-out: CTG BaF3myr-Akt1, Mean, mean of replicates.
Setting [17] is: Mus musculus, read-out: CTG BaF3myr-Akt1, individual determinations, single replicates.
The mark [18] stands for this setting: read-out: CTG BaF3myr-Akt1, individual determinations, single replicates.
The mark [19] stands for this setting: HTRF IC50 Akt2, Mean, mean of replicates.
The mark [20] stands for this setting: HTRF IC50 Akt2, individual determinations, single replicates.
Where [21] appears, read: IC50 Akt2, HTRF, ATP at KM, 1 h preincubation.
The mark [22] stands for this setting: HTRF IC50 Akt3, Mean, mean of replicates.
Setting [23] is: HTRF IC50 Akt3, individual determinations, single replicates.
The mark [24] stands for this setting: IC50 Akt3, HTRF, ATP at KM, 1 h preincubation.
The mark [25] stands for this setting: HTRF IC50 Akt1, Mean, mean of replicates.
[26] abbreviates: HTRF IC50 Akt1, individual determinations, single replicates.
Setting [27] is: IC50 Akt1, HTRF, ATP at KM, 1 h preincubation.

Regarding `NC1(c2ccc(-c3nc4ccn5c(=O)[nH]nc5c4cc3-c3ccccc3)cc2)CCC1` [MK-2206, reference compound], the EC50 in assay [1] (setting [8]) is 1340 nM; in assay [1] (setting [9]), 1960 nM and 931 nM and 1120 nM; in assay [2] (setting [10]), 5.73 µM; in assay [2] (setting [11]), 5.9 µM; in assay [2] (setting [12]) it was 5.57 µM; in assay [3] (setting [13]), 7.39 µM. In addition, the EC50 in assay [3] (setting [14]) was 6.96 µM; in assay [3] (setting [15]), 5.09 µM and 9.92 µM; in assay [4] (setting [16]), 1.12 µM; in assay [4] (setting [17]), 1.16 µM; in assay [4] (setting [18]), 0.987 µM and 1.22 µM.
Turning to `C=CC(=O)Nc1ccc2[nH]c(=O)n(C3CCN(Cc4ccc(-c5ncc(C)cc5-c5ccccc5)cc4)CC3)c2c1` [compound 2], the EC50 in assay [1] (setting [8]) is 2780 nM; in assay [1] (setting [9]), 3990 nM and 1130 nM and 1580 nM; in assay [2] (setting [10]) it was > 30 µM; in assay [2] (setting [11]), > 30 µM; in assay [2] (Mus musculus, read-out: EC50 BaF3myr-Akt3, CTG), > 30 µM; in assay [2] (setting [12]), > 30 µM. Moreover, the EC50 in assay [3] (setting [13]) was 11.5 µM; in assay [3] (setting [14]) it was 13.2 µM; in assay [3] (setting [15]), 10.3 µM and 10.9 µM; in assay [4] (setting [16]), 3.1 µM; in assay [4] (setting [17]), 2.81 µM; in assay [4] (setting [18]), 3.52 µM and 2.96 µM. Further, the “Log ratio EC50 [Akt] / EC50 [Akt], Akt3 / Akt2” value (“Log ratio EC50 … Akt3 / Akt2” below) in assay [2] is on record as -0.46. The IC50 was 150 nM in assay [5] (setting [19]); 156 nM and 149 nM and 144 nM in assay [5] (setting [20]); 150 ± 5 nM in assay [5] (setting [21]); 7.51 µM in assay [6] (setting [22]); 7.41 µM and 4.78 µM and 10.2 µM and 5.33 µM and 9.79 µM in assay [6] (setting [23]); 7.51 ± 1.82 µM in assay [6] (setting [24]). Moreover, the IC50 in assay [7] (setting [25]) was 21.8 nM; in assay [7] (setting [26]), 22.1 nM and 22.9 nM and 20.5 nM; in assay [7] (setting [27]) it was 22 ± 2 nM. Also, the “Log ratio IC50 [Akt] / IC50 [Akt], Akt1 / Akt2” value (“Log ratio IC50 [Akt] / IC50” below) in assay [7] is given as -0.83. Further, the “Log ratio EC50 [Akt] / EC50 [Akt], Akt1 / Akt2” value (“Log ratio EC50 … Akt1 / Akt2” for short) in assay [4] was 0.05.
In the case of `C=CC(=O)Nc1ccc2[nH]c(=O)n(C3CCN(Cc4ccc(-c5ncc(C(=O)O)cc5-c5ccccc5)cc4)CC3)c2c1` [compound 4], the “EC50 BaF3myr-Akt2” value in assay [1] (CTG) was “generally inactive”. For the same compound, the EC50 in assay [1] (read-out: CTG BaF3myr-Akt2, Mean, mean of replicates) was > 30000 nM; in assay [1] (setting [9]) it was > 30000 nM; in assay [1] (read-out: EC50 BaF3myr-Akt2, CTG), > 30000 nM; in assay [2] (read-out: CTG BaF3myr-Akt3, Mean, mean of replicates), > 30 µM; in assay [2] (setting [12]), > 30 µM; in assay [2] (read-out: EC50 BaF3myr-Akt3, CTG) it was > 30 µM. The EC50 in assay [3] (CTG, parental BaF3 cell line, read-out: EC50 BaF3) is > 30 µM; in assay [3] (parental cells, mean of replicates, read-out: CTG BaF3, Mean), > 30 µM; in assay [3] (setting [15]), > 30 µM; in assay [4] (read-out: CTG BaF3myr-Akt1, Mean, mean of replicates), > 30 µM; in assay [4] (setting [18]), > 30 µM; in assay [4] (read-out: EC50 BaF3myr-Akt1, CTG) it was > 30 µM. For the same compound, the “EC50 BaF3myr-Akt3” value in assay [2] (CTG) was “generally inactive”. Also, the “Log ratio EC50 … Akt3 / Akt2” value in assay [2] was 0. Moreover, the IC50 is 248 nM in assay [5] (read-out: HTRF IC50 Akt2, Mean, mean of replicates); 189 nM and 309 nM and 245 nM in assay [5] (read-out: HTRF IC50 Akt2, individual determinations, single replicates); 248 ± 49 nM in assay [5] (read-out: IC50 Akt2, HTRF, ATP at KM, 1 h preincubation); 5.7 µM and 7.19 µM and 8.39 µM in assay [6] (read-out: HTRF IC50 Akt3, individual determinations, single replicates); 6.45 ± 0.742 µM in assay [6] (read-out: IC50 Akt3, HTRF, ATP at KM, 1 h preincubation); 44.3 nM in assay [7] (read-out: HTRF IC50 Akt1, Mean, mean of replicates). Besides, the IC50 in assay [7] (read-out: HTRF IC50 Akt1, individual determinations, single replicates) was 45.5 nM and 22.1 nM and 65.3 nM; in assay [7] (read-out: IC50 Akt1, HTRF, ATP at KM, 1 h preincubation), 44 ± 18 nM. In assay [7], the “Log ratio IC50 [Akt] / IC50” value was -0.75. In assay [4] (CTG), the “EC50 BaF3myr-Akt1” value was “generally inactive”. Besides, the “Log ratio EC50 … Akt1 / Akt2” value in assay [4] was 0.
Consider `C=CC(=O)Nc1ccc2[nH]c(=O)n(C3CCN(Cc4ccc(-c5ncc(C(=O)OC)cc5-c5ccccc5)cc4)CC3)c2c1` [compound 5], for which the EC50 in assay [1] (setting [8]) was 2710 nM; in assay [1] (setting [9]), 3750 nM and 1350 nM and 1680 nM; in assay [2] (setting [10]), 7.65 µM; in assay [2] (setting [11]) it was 7.73 µM; in assay [2] (setting [12]), 7.85 µM and 7.37 µM; in assay [3] (setting [13]) it was 16.3 µM. The EC50 in assay [3] (setting [14]) was 18.7 µM; in assay [3] (setting [15]), 12.7 µM and 17.6 µM; in assay [4] (setting [16]), 4.92 µM; in assay [4] (setting [17]), 5.83 µM; in assay [4] (setting [18]), 4.17 µM and 4.75 µM. Besides, the “Log ratio EC50 … Akt3 / Akt2” value in assay [2] was -0.45. Also, the IC50 is 116 nM in assay [5] (setting [19]); 119 nM and 116 nM and 114 nM in assay [5] (setting [20]); 116 ± 2 nM in assay [5] (setting [21]); 3.4 µM in assay [6] (setting [22]); 3.96 µM and 3.22 µM and 3.01 µM in assay [6] (setting [23]); 3.4 ± 0.406 µM in assay [6] (setting [24]). For the same compound, the IC50 in assay [7] (setting [25]) was 35.5 nM; in assay [7] (setting [26]), 38 nM and 37.3 nM and 31.2 nM; in assay [7] (setting [27]), 35 ± 4 nM. The “Log ratio IC50 [Akt] / IC50” value in assay [7] is recorded as -0.52. In assay [4], the “Log ratio EC50 … Akt1 / Akt2” value is reported as 0.26.
